Assay [1] concerns the target human TASK-1 (Homo sapiens, UniProt O14649). Briefly: Inhibition of recombinant TASK-1 in stably transfected CHO cells, KCl-induced depolarization, voltage-sensitive dye (B-2). The class given is cell-based. Also on record: expressed in transfected cells; host or cells: stably transfected CHO cells. To be noted: depolarization induced by 40 mM potassium chloride, some mean values from multiple determinations. How it is done: (§1) B-2. Inhibition of Recombinant TASK-1 and TASK-3 In Vitro
(§2) The investigations on the inhibition of the recombinant TASK-1 and TASK-3 channels were conducted using stably transfected CHO cells. The compounds of the invention were tested here with administration of 40 mM of potassium chloride in the presence of a voltage-sensitive dye using the method described in detail in the following references [Whiteaker et al., Validation of FLIPR membrane potential dye for high-throughput screening of potassium channel modulators, J. Biomol. Screen. 6 (5), 305-312 (2001); Molecular Devices FLIPR Application Note: Measuring membrane potential using the FLIPR® membrane potential assay kit on Fluorometric Imaging Plate Reader (FLIPR®) systems, http://www.moleculardevices.com/reagents-supplies/assay-kits/ion-channels/flipr-membrane-potential-assay-kits]. The activity of the test substances was determined as their ability to inhibit a depolarization induced in the recombinant cells by 40 mM potassium chloride. The concentration which can block half of this depolarization is referred to as IC50).
(§3) Table 2 below lists the IC50 values from this assay determined for individual working examples of the invention (some as mean values from multiple independent individual determinations): […]

Assay [2] concerns the target human TASK-3 (Homo sapiens, UniProt Q9NPC2). Description: Inhibition of recombinant TASK-3 in stably transfected CHO cells, KCl-induced depolarization, voltage-sensitive dye (B-2). It counts as cell-based. Also on record: expressed in transfected cells; host or cells: stably transfected CHO cells. To be noted: depolarization induced by 40 mM potassium chloride, some mean values from multiple determinations. As to the method:
as §1, §2, §3

SMILES strings stand for the structures.

Sequence of human TASK-1 (O14649 whole entry): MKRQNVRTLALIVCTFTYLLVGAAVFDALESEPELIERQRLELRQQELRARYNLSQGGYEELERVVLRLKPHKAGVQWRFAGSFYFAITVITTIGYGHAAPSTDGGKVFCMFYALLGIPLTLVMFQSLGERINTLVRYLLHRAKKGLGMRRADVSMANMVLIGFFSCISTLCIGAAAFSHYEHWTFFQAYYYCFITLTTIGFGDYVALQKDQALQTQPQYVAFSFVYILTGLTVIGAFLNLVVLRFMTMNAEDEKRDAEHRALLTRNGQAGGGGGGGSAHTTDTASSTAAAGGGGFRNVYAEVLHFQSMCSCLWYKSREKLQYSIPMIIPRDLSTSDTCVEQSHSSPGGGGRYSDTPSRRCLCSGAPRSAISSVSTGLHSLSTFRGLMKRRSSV
Sequence of human TASK-3 (Q9NPC2 whole entry): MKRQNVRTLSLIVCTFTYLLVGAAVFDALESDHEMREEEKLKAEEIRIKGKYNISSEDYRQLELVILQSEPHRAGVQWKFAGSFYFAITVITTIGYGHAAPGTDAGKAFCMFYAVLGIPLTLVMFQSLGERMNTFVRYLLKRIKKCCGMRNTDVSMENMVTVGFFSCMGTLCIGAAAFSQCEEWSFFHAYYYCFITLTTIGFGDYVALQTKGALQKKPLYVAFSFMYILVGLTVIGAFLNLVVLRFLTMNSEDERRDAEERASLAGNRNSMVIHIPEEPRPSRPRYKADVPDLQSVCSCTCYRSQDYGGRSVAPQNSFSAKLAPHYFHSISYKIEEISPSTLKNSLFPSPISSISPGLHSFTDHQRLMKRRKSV

With `COc1ccc(F)c(C(=O)N2C3CCC2CN(Cc2c(-c4ccc(Br)cc4)nc4ccccn24)C3)n1` [Example 140, (3-{[2-(4-Bromophenyl)imidazo[1,2-a]pyridin-3-yl]methyl}-3,8-diazabicyclo[3.2.1]oct-8-yl)(3-fluoro-6-methoxypyridin-2-yl)methanone], the figures for the IC50 in assay [1] and in assay [2] were 160 nM and 21 nM, respectively.

With `COc1cccc(C(=O)N2CC3CCC2CN3Cc2c(-c3ccc(Br)cc3)nc3ccccn23)n1` (racemic) [Example 151, (5-{[2-(4-Bromophenyl)imidazo[1,2-a]pyridin-3-yl]methyl}-2,5-diazabicyclo[2.2.2]oct-2-yl)(6-methoxypyridin-2-yl)methanone], the IC50 – broadly, the point on the concentration scale where inhibition reaches its midpoint – was 72 nM in assay [1] and 1.8 nM in assay [2].

For `O=C(OC1CCCC1)N1C2CCC1CN(Cc1c(-c3ccc(Cl)cc3)nc3ccccn13)C2` [Example 186, Cyclopentyl 3-{[2-(4-chlorophenyl)imidazo[1,2-a]pyridin-3-yl]methyl}-3,8-diazabicyclo[3.2.1]octane-8-carboxylate], the IC50 in assay [1] worked out at 730 nM; in assay [2], 44 nM.

Consider `CC(C)c1ccc(-c2nc3ccccn3c2CN2CC3CCC2CN3C(=O)c2ccccc2F)cc1` (single isomer, unassigned) [Example 57], for which the IC50 in assay [1] stood at 1400 nM; in assay [2], 240 nM.

In the case of `O=C(N1CCSCC1)N1C2CCC1CN(Cc1c(-c3ccc(Cl)cc3)nc3ccccn13)C2` [Example 183, (3-{[2-(4-Chlorophenyl)imidazo[1,2-a]pyridin-3-yl]methyl}-3,8-diazabicyclo[3.2.1]oct-8-yl)(thiomorpholin-4-yl)methanone], the IC50 came to 450 nM in assay [1] and 26 nM in assay [2].

Regarding `Cc1cccc(Cl)c1NC(=O)N1C2COCC1CN(Cc1c(-c3ccc(Cl)cc3)nc3ccccn13)C2` [Example 169, N-(2-Chloro-6-methylphenyl)-7-{[2-(4-chlorophenyl)imidazo[1,2-a]pyridin-3-yl]methyl}-3-oxa-7,9-diazabicyclo[3.3.1]nonane-9-carboxamide], the IC50 in assay [1] came to 3600 nM; in assay [2], 110 nM.

On to `Cc1ccccc1NC(=O)N1C2CCC1CN(Cc1c(-c3ccc(Cl)cc3)nc3ccccn13)C2` [Example 159, 3-{[2-(4-Chlorophenyl)imidazo[1,2-a]pyridin-3-yl]methyl}-N-(2-methylphenyl)-3,8-diazabicyclo[3.2.1]octane-8-carboxamide], for which the results for the IC50 in assay [1] and in assay [2] were 2900 nM and 220 nM, respectively.

Take `Cc1ccccc1C(=O)N1CC2CCC1CN2Cc1c(-c2ccc(Cl)cc2)nc2ccccn12` (single isomer, unassigned) [Example 46]: the IC50 in assay [1] is 73 nM; in assay [2] it was 5 nM.

`COc1ccc(F)c(C(=O)N2CC3CCC2CN3Cc2c(-c3ccc(Br)cc3)nc3ccccn23)n1` (racemic) [Example 153, (5-{[2-(4-Bromophenyl)imidazo[1,2-a]pyridin-3-yl]methyl}-2,5-diazabicyclo[2.2.2]oct-2-yl)(3-fluoro-6-methoxypyridin-2-yl)methanone]: the IC50 in assay [1] was determined as 1000 nM; in assay [2], 34 nM.

Consider `O=C(C1CCCC1)N1C2CC1CN(Cc1c(-c3ccc(Cl)cc3)nc3ccccn13)C2` [Example 116], for which the values for the IC50 in assay [1] and in assay [2] were 535 nM and 340 nM, respectively.

Turning to `COc1cccc(C(=O)N2C3CCC2CN(Cc2c(-c4ccc(Cl)cn4)nc4ccccn24)C3)c1` [Example 112], the IC50 in assay [1] was 200 nM; in assay [2], 29 nM.

`Cc1cnc(C(=O)N2C3CCC2CN(Cc2c(-c4ccc(Cl)cc4)nc4ccccn24)C3)s1` [Example 149, (3-{[2-(4-Chlorophenyl)imidazo[1,2-a]pyridin-3-yl]methyl}-3,8-diazabicyclo[3.2.1]oct-8-yl)(5-methyl-1,3-thiazol-2-yl)methanone]: the results for the IC50 in assay [1] and in assay [2] were 3000 nM and 300 nM, respectively.

As to `O=C(c1cccc(OCC(F)(F)F)n1)N1C2COCC1CN(Cc1c(-c3ccc(Cl)cc3)nc3ccccn13)C2` [Example 77], the results for the IC50 in assay [1] and in assay [2] were 810 nM and 44 nM, respectively.

Take `COc1ccc(Cl)c(C(=O)N2C3COCC2CN(Cc2c(-c4ccc(Cl)cn4)nc4ccccn24)C3)n1` [Example 136, (3-Chloro-6-methoxypyridin-2-yl)(7-{[2-(5-chloropyridin-2-yl)imidazo[1,2-a]pyridin-3-yl]methyl}-3-oxa-7,9-diazabicyclo[3.3.1]non-9-yl)methanone]: the IC50 was 9300 nM in assay [1] and 44 nM in assay [2].

On to `O=C(C1CCCC1)N1C2CCC1CN(Cc1c(-c3ccc(Br)cc3)nc3ccccn13)C2` [Example 96], for which the IC50 turned out to be 240 nM in assay [1] and 4.5 nM in assay [2].

For the compound `CC(C)c1ccccc1C(=O)N1C2CCC1CN(Cc1c(-c3ccc(Br)cc3)nc3ccccn13)C2` [Example 141, (3-{[2-(4-Bromophenyl)imidazo[1,2-a]pyridin-3-yl]methyl}-3,8-diazabicyclo[3.2.1]oct-8-yl)(2-isopropylphenyl)methanone], the IC50 in assay [1] came to 250 nM; in assay [2] it was 59 nM.

For `COc1cccc(C(=O)N2CC3CCC(C2)N3Cc2c(-c3ccc(Br)cc3)nc3ccccn23)c1` [Example 84], the IC50 in assay [1] came out at 1100 nM; in assay [2] it was 400 nM.

Turning to `COc1ccc(Cl)c(C(=O)N2C3COCC2CN(Cc2c(-c4ccc(Cl)cc4)nc4ccccn24)C3)n1` [Example 32, (3-Chloro-6-methoxypyridin-2-yl)(7-{[2-(4-chlorophenyl)imidazo[1,2-a]pyridin-3-yl]methyl}-3-oxa-7,9-diazabicyclo[3.3.1]non-9-yl)methanone], the IC50 stood at 270 nM in assay [1] and 9.6 nM in assay [2].

Take `COc1ccc(C)c(C(=O)N2C3CCC2CN(Cc2c(-c4ccc(C(C)C)cc4)nc4ccccn24)C3)n1` [Example 145, (3-{[2-(4-Isopropylphenyl)imidazo[1,2-a]pyridin-3-yl]methyl}-3,8-diazabicyclo[3.2.1]oct-8-yl)(6-methoxy-3-methylpyridin-2-yl)methanone]: the IC50 turned out to be 280 nM in assay [1] and 27 nM in assay [2].

Turning to `O=C(c1ccccc1F)N1CC2CCC(C1)N2Cc1c(-c2ccc(Cl)cc2)nc2ccccn12` [Example 87], the concentration for half-maximal inhibition (IC50) in assay [1] came out at 583 nM; in assay [2], 160 nM.

`O=C(c1ccccc1F)N1CC2CCC(C1)N2Cc1c(-c2ccc(Br)cc2)nc2ccccn12` [Example 82]: the IC50 in assay [1] amounted to 230 nM; in assay [2] it was 420 nM.

As for `COc1ccc(F)cc1C(=O)N1C2CCC1CN(Cc1c(-c3ccc(Cl)cc3)nc3ccccn13)C2` [Example 103], the 50% inhibitory concentration (IC50) was 540 nM in assay [1] and 20 nM in assay [2].

Consider `O=C(C1CCOC1)N1C2COCC1CN(Cc1c(-c3ccc(Cl)cc3)nc3ccccn13)C2` (centres unmarked) [Example 78], for which the IC50 in assay [1] came to 1600 nM; in assay [2], 65 nM.

Take `CC(C)(C)OC(=O)N1CC2CCC(C1)N2Cc1c(-c2ccc(Br)cc2)nc2ccccn12` [Example 5]: the IC50 in assay [1] turned out to be 200 nM; in assay [2] it was 150 nM.

`O=C(c1cccc(OC(F)(F)F)c1)N1C2CC1CN(Cc1c(-c3ccc(Cl)cc3)nc3ccccn13)C2` [Example 120]: the IC50 in assay [1] came to 1100 nM; in assay [2], 180 nM.

(Values after patent US20210024545A1, “SUBSTITUTED DIAZAHETERO-BICYCLIC COMPOUNDS AND THEIR USE” (Bayer Aktiengesellschaft, priority 2016, published 2021).)
